# Measurements taken from patent publication US20210161174A1, “FEED ADDITIVE FOR FARMED ANIMALS” (ADISSEO FRANCE S.A.S., priority 2018, published 2021).
# Marks after values point to notes of the source that are not given here.
# Assays:
# [1] = Example 2: broiler performance (body weight gain, feed intake, FCR), PQQ in diet, 0 to 42 days; assay type: in vivo, Broiler Chicken (Cobb 500)
# Text: Study Animals: • Animal: Broiler Chicken • Breed/Strain: Cobb 500 • Description: Day-of-hatch male chicks, sexed at hatchery • Sex: Male Total number of treatments: 4 Total number of replicates per treatment: 12 Total number of chicks per replicate: […] Initial age: day-of-hatch: 0 days-of-age Final age: 6 weeks: 42 days-of-age. Feed will be changed based on the days of each phase. • Starter feed will be weighed out and fed from day 0 to 7. • Grower feed will be weighed, issued and fed from day 8 until 21. • Finisher feed will be weighed, issued and fed from day 22 until 35. • Withdraw feed will be weighed, issued and fed from day 36 until 42. Performance: Feed consumption and pen weights are determined on days 0, 21, 35 and 42 to calculate average body weight (BW), body weight gain (BWG) and feed conversion ratio (FCR). Final bird weights: At the end of the grow-out period (Day 42), all birds are weighed, as well as any and all remaining feed. Randomized Complete Block Design with 4 treatments×12 replicates/treatment (40 birds/pen), randomized within blocks across the barn to minimize differences in environmental condition. The pen is the experimental unit. Dietary Treatments • Control (NC, negative control without PQQ) • 0.2 ppm PQQ • 0.5 ppm PQQ • 1 ppm PQQ The results are presented in tables 5 to 13 below for broilers fed diets from 0 to 42 days (d) of age. The values given are the mean and the P value.
# [2] = test system: wooden breast myopathies; assay: Example 2: wooden breast assessment by expert panel at 42 d; assay type: in vivo, Broiler Chicken (Cobb 500); details: for wooden breast means per treatment (WB): score scale WB0-WB4
# Experimental: Study Animals: • Animal: Broiler Chicken • Breed/Strain: Cobb 500 • Description: Day-of-hatch male chicks, sexed at hatchery • Sex: Male
# Processing: On day […] (12) birds are selected from each pen for processing (at 12 reps/trt: 576 birds in total; 144 birds/trt)
# Wooden breast assessment was determined by an expert panel according to 5 levels: WB0, WB1, WB2, WB3, WB4 from no WB to severe WB.
# Dietary Treatments • Control (NC, negative control without PQQ) • 0.2 ppm PQQ • 0.5 ppm PQQ • 1 ppm PQQ
# Wooden Breast Scores were: WB 0—normal breast; WB 1—mild hardening in the upper; WB 2—moderate hardening in the upper and/or lower part of the fillet; WB 3—severe hardening; WB 4—severe hardening with hemorrhagic lesions, increased volume, and presence of yellow fluid.
# Higher is the score per WB 3 and 4 categories, greater is the default. Conversely, for categories WB0 to WB2, higher is the score, better is the quality.
# Wooden breast scores were: WB0—normal breast; WB1—mild hardening in the upper; WB 2—moderate hardening in the upper and/or lower part of the fillet; WB 3—severe hardening; WB 4—severe hardening with hemorrhagic lesions, increased volume, and presence of yellow fluid.
smiles,measurement,setting,value
"O=C(O)c1cc(C(=O)O)c2c(n1)C(=O)C(=O)c1cc(C(=O)O)[nH]c1-2 [PQQ, pyrroloquinoline quinone]",Cumulative feed intake of broilers,"[1]; 0.2 ppm PQQ (T2), 1 t1o 42 d",5365 g
same,Cumulative feed intake of broilers,"[1]; 0.2 ppm PQQ (T2), 1 to1 21 d",835 g
same,feed intake of broilers,"[1]; 0.2 ppm PQQ (T2), 1 to 7 d",158 g
same,cumulative body weight gain of broilers,"[1]; 0.2 ppm PQQ (T2), 1 to 21 d",624 g
same,cumulative feed conversion ratio of broilers,"[1]; 0.2 ppm PQQ (T2), 1 to 21 d",1.355
same,cumulative body weight gain of broilers,"[1]; 0.2 ppm PQQ (T2), 1 to 35 d",2125 g
same,cumulative feed conversion ratio of broilers,"[1]; 0.2 ppm PQQ (T2), 1 to 35 d",1.494
same,cumulative body weight gain of broilers,"[1]; 0.2 ppm PQQ (T2), 1 to 42 d",3204 g
same,cumulative feed conversion ratio of broilers,"[1]; 0.2 ppm PQQ (T2), 1 to 42 d",1.674
same,feed intake of broilers,"[1]; 0.2 ppm PQQ (T2), 8 to 21 d",677 g
same,Cumulative feed intake of broilers,"[1]; 0.2 ppm PQQ (T2), 11 to 35 d",3173 g
same,feed intake of broilers,"[1]; 0.2 ppm PQQ (T2), 22 to 35 d",2346 g
same,feed intake of broilers,"[1]; 0.2 ppm PQQ (T2), 36 to 42 d",2218 g
same,Cumulative feed intake of broilers,"[1]; 0.5 ppm PQQ (T3), 1 t1o 42 d",5316 g
same,Cumulative feed intake of broilers,"[1]; 0.5 ppm PQQ (T3), 1 to1 21 d",853 g
same,feed intake of broilers,"[1]; 0.5 ppm PQQ (T3), 1 to 7 d",156 g
same,cumulative body weight gain of broilers,"[1]; 0.5 ppm PQQ (T3), 1 to 21 d",608 g
same,cumulative feed conversion ratio of broilers,"[1]; 0.5 ppm PQQ (T3), 1 to 21 d",1.402
same,cumulative body weight gain of broilers,"[1]; 0.5 ppm PQQ (T3), 1 to 35 d",2123 g
same,cumulative feed conversion ratio of broilers,"[1]; 0.5 ppm PQQ (T3), 1 to 35 d",1.526
same,cumulative body weight gain of broilers,"[1]; 0.5 ppm PQQ (T3), 1 to 42 d",3166 g
same,cumulative feed conversion ratio of broilers,"[1]; 0.5 ppm PQQ (T3), 1 to 42 d",1.675
same,feed intake of broilers,"[1]; 0.5 ppm PQQ (T3), 8 to 21 d",699 g
same,Cumulative feed intake of broilers,"[1]; 0.5 ppm PQQ (T3), 11 to 35 d",3236 g
same,feed intake of broilers,"[1]; 0.5 ppm PQQ (T3), 22 to 35 d",2390 g
same,feed intake of broilers,"[1]; 0.5 ppm PQQ (T3), 36 to 42 d",2105 g
same,Cumulative feed intake of broilers,"[1]; 1.0 ppm PQQ (T4), 1 t1o 42 d",5449 g
same,Cumulative feed intake of broilers,"[1]; 1.0 ppm PQQ (T4), 1 to1 21 d",905 g
same,feed intake of broilers,"[1]; 1.0 ppm PQQ (T4), 1 to 7 d",159 g
same,cumulative body weight gain of broilers,"[1]; 1.0 ppm PQQ (T4), 1 to 21 d",630 g
same,cumulative feed conversion ratio of broilers,"[1]; 1.0 ppm PQQ (T4), 1 to 21 d",1.429
same,cumulative body weight gain of broilers,"[1]; 1.0 ppm PQQ (T4), 1 to 35 d",2178 g
same,cumulative feed conversion ratio of broilers,"[1]; 1.0 ppm PQQ (T4), 1 to 35 d",1.540
same,cumulative body weight gain of broilers,"[1]; 1.0 ppm PQQ (T4), 1 to 42 d",3188 g
same,cumulative feed conversion ratio of broilers,"[1]; 1.0 ppm PQQ (T4), 1 to 42 d",1.708
same,feed intake of broilers,"[1]; 1.0 ppm PQQ (T4), 8 to 21 d",747 g
same,Cumulative feed intake of broilers,"[1]; 1.0 ppm PQQ (T4), 11 to 35 d",3357 g
same,feed intake of broilers,"[1]; 1.0 ppm PQQ (T4), 22 to 35 d",2459 g
same,feed intake of broilers,"[1]; 1.0 ppm PQQ (T4), 36 to 42 d",2113 g
same,influence on the body weight,"[1]; each concentration (0.2, 0.5, 1.0 ppm)",positive influence
same,"wooden breast myopathies occurrence, WB0",[2]; 0.2 ppm PQQ (T2),0.83%
same,"wooden breast myopathies occurrence, WB1",[2]; 0.2 ppm PQQ (T2),2.78%
same,"wooden breast myopathies occurrence, WB2",[2]; 0.2 ppm PQQ (T2),20.00^a %
same,"wooden breast myopathies occurrence, WB3",[2]; 0.2 ppm PQQ (T2),49.16^a %
same,"wooden breast myopathies occurrence, WB4",[2]; 0.2 ppm PQQ (T2),27.22%
same,"wooden breast myopathies scores, WB0",[2]; 0.2 ppm PQQ (T2),0.08
same,"wooden breast myopathies scores, WB1",[2]; 0.2 ppm PQQ (T2),0.17
same,"wooden breast myopathies scores, WB2",[2]; 0.2 ppm PQQ (T2),1.17^b
same,"wooden breast myopathies scores, WB3",[2]; 0.2 ppm PQQ (T2),2.92
same,"wooden breast myopathies scores, WB4",[2]; 0.2 ppm PQQ (T2),1.67
same,wooden breast means per treatment (WB),[2]; 0.2 ppm PQQ (T2),2.92^a
same,"wooden breast myopathies occurrence, WB0",[2]; 0.5 ppm PQQ (T3),0.00%
same,"wooden breast myopathies occurrence, WB1",[2]; 0.5 ppm PQQ (T3),15.29%
same,"wooden breast myopathies occurrence, WB2",[2]; 0.5 ppm PQQ (T3),41.67^ab %
same,"wooden breast myopathies occurrence, WB3",[2]; 0.5 ppm PQQ (T3),30.56^ab %
same,"wooden breast myopathies occurrence, WB4",[2]; 0.5 ppm PQQ (T3),12.50%
same,"wooden breast myopathies scores, WB0",[2]; 0.5 ppm PQQ (T3),0.00
same,"wooden breast myopathies scores, WB1",[2]; 0.5 ppm PQQ (T3),0.92
same,"wooden breast myopathies scores, WB2",[2]; 0.5 ppm PQQ (T3),2.50^ab
same,"wooden breast myopathies scores, WB3",[2]; 0.5 ppm PQQ (T3),1.83
same,"wooden breast myopathies scores, WB4",[2]; 0.5 ppm PQQ (T3),0.75
same,wooden breast means per treatment (WB),[2]; 0.5 ppm PQQ (T3),2.36^b
same,change in proportion of WB2 breast fillets with supplementation,[2]; 1 ppm PQQ,+50%
same,change in proportion of WB4 breast fillets with supplementation,[2]; 1 ppm PQQ,−60%
same,"wooden breast myopathies occurrence, WB0",[2]; 1.0 ppm PQQ (T4),0.00%
same,"wooden breast myopathies occurrence, WB1",[2]; 1.0 ppm PQQ (T4),18.05%
same,"wooden breast myopathies occurrence, WB2",[2]; 1.0 ppm PQQ (T4),46.94^a %
same,"wooden breast myopathies occurrence, WB3",[2]; 1.0 ppm PQQ (T4),25.00^b %
same,"wooden breast myopathies occurrence, WB4",[2]; 1.0 ppm PQQ (T4),10.00%
same,"wooden breast myopathies scores, WB0",[2]; 1.0 ppm PQQ (T4),0.00
same,"wooden breast myopathies scores, WB1",[2]; 1.0 ppm PQQ (T4),1.08
same,"wooden breast myopathies scores, WB2",[2]; 1.0 ppm PQQ (T4),2.75^a
same,"wooden breast myopathies scores, WB3",[2]; 1.0 ppm PQQ (T4),1.50
same,"wooden breast myopathies scores, WB4",[2]; 1.0 ppm PQQ (T4),0.58
same,wooden breast means per treatment (WB),[2]; 1.0 ppm PQQ (T4),2.26^b
same,proportions of bad quality fillets (WB3 and WB4),[2]; supplementation with PQQ,lower proportions
same,proportions of good quality breast fillets (WB0 to WB2),[2]; supplementation with PQQ,higher proportions
